Structures can show the parent of a compound that is named as a salt.
What was measured:
[1] = molecular target: T1, human dopamine D2L receptors (long isoform) (Homo sapiens, UniProt P14416); assay: Dopamine D2L receptor binding, [125I] iodospiperone displacement; conditions: membranes of HEK-293 cells stably expressing human D2L receptor; 0.01 nM [125I] iodospiperone; 25° C., 60 minutes; read-out: Ki(D2)*
T1 construct: expressed in transfected cells; membranes
Experimental: (§1) The substance to be tested was either dissolved in methanol/Chremophor® (BASF-AG) or in dimethyl sulfoxide and then diluted with water to the desired concentration.
(§2) Each assay mixture was run in triplicate.
The incubation buffer contained 50 mM tris, 120 mM NaCl, 5 mM KCl, 2 mM CaCl2, 2 mM MgCl2 and 0.1% bovine serum albumin. The buffer was adjusted to pH 7.4 with HCl.
(§3) Measurement and Analysis:
(§4) After having been incubated at 25° C. for 60 minutes, the assay mixtures were filtered through a Whatman GF/B glass fiber filter under vacuum using a cell collecting device. The filters were transferred to scintillation viols using a filter transfer system. After 4 ml of Ultima Gold® (Packard) have been added, the samples were shaken for one hour and the radioactivity was then counted in a Beta-Counter (Packard, Tricarb 2000 or 2200CA). The cpm values were converted into dpm using a standard quench series and the program belonging to the instrument.
(§5) The inhibition curves were analyzed by means of iterative nonlinear regression analysis using the Statistical Analysis System (SAS) which is similar to the “LIGAND” program described by Munson and Rodbard.
(§6) The results of the receptro binding studies are expressed as receptor binding constants Ki(D2) and Ki(D3), respectively, as herein before described, and given in table 2.

[2] = molecular target: T2, human dopamine D3 receptors (Homo sapiens, UniProt P35462); assay: Dopamine D3 receptor binding, [125I]-iodosulpride displacement; conditions: for Ki: membranes of HEK-293 cells stably expressing human D3 receptor, 0.1 nM [125I]-iodosulpride, 25° C., 60 minutes; for Ki(D2)*/Ki(D3)*: selectivity ratio of receptor binding constants D2 versus D3
T2 construct: expressed in transfected cells; membranes
T2 sequence (P35462 whole entry): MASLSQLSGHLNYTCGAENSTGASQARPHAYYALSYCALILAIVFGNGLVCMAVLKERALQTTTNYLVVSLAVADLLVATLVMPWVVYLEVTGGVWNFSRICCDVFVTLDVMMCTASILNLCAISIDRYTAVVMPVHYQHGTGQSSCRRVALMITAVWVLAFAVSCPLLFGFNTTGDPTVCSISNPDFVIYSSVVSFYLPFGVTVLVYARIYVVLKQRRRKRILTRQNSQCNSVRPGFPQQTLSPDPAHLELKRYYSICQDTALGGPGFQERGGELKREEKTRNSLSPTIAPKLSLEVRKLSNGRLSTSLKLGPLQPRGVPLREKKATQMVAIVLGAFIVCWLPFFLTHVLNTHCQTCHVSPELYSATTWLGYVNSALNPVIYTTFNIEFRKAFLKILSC
Experimental: as §1, §2
The incubation buffer contained 50 mM tris, 120 mM NaCl, 5 mM KCl, 2 mM CaCl2, 2 mM MgCl2 and 0.1% bovine serum albumin, 10 μM quinolone and 0.1% ascorbic acid (prepared fresh daily). The buffer was adjusted to pH 7.4 with HCl.
as §3, §4, §5, §6

T1 sequence (P14416 whole entry, canonical isoform): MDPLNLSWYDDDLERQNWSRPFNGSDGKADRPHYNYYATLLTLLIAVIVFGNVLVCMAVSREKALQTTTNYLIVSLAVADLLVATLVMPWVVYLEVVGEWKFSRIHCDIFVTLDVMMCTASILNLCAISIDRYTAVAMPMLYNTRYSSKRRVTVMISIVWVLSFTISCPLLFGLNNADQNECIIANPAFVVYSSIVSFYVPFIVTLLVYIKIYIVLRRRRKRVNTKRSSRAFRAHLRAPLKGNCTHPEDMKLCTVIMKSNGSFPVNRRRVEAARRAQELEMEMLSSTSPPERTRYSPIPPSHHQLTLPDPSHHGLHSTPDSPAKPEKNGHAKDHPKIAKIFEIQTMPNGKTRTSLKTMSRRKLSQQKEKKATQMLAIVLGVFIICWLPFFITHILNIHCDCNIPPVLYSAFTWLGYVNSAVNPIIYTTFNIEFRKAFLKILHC

**Q.** Which results are given for CCCN[C@H]1CCc2cc(NS(=O)(=O)c3ccc(C(C)C(F)(F)F)cc3)ccc2C1 (mixture of isomers) [Example 40, N—((S)-6-Propylamino-5,6,7,8-tetrahydro-naphthalen-2-yl)-4-(2,2,2-trifluoro-1-methyl-ethyl)benzenesulfonamide-racemate]?
**A.** Ki [1]: 309 nM; Ki [2]: 1.4 nM; Ki(D2)*/Ki(D3)* [2]: 221

**Q.** CCC(=O)N1CCC[C@@H]2Cc3cc(NS(=O)(=O)c4ccc(C(C)C)cc4)ccc3C[C@H]21 (relative stereo) [Example 22, trans-4-Isopropyl-N-(1-propionyl-1,2,3,4,4a,5,10,10a-octahydro-benzo[g]quinolin-7-yl)benzenesulfonamide] was tested. Which Ki [1] did it give?
**A.** 1830 nM

**Q.** What about the Ki [2] of the same compound?
**A.** 19 nM

**Q.** And the “Ki(D2)*/Ki(D3)*” value [2]?
**A.** 96

**Q.** What does the source list for CCCN1CCC[C@@H]2Cc3cc(NS(=O)(=O)c4ccc(C(C)C)cc4)ccc3C[C@H]21 (relative stereo) [Example 23, trans-4-Isopropyl-N-(1-propyl-1,2,3,4,4a,5,10,10a-octahydro-benzo[g]quinolin-7-yl)benzenesulfonamide]?
**A.** Ki [1]: 116 nM; Ki [2]: 2.3 nM; Ki(D2)*/Ki(D3)* [2]: 50

**Q.** For CCCN[C@@H]1CCc2ccc(NS(=O)(=O)c3ccc(C(C)C)cc3)cc2C1 [Example 2, (R)-4-Isopropyl-N—((R)-7-propylamino-5,6,7,8-tetrahydro-naphthalen-2-yl)benzenesulfonamide], which Ki [1] is on record?
**A.** 442 nM

**Q.** And the Ki [2]?
**A.** 14 nM

**Q.** And the “Ki(D2)*/Ki(D3)*” value [2]?
**A.** 32

**Q.** How did the Ki [1] turn out when CCCN[C@@H]1CCc2cc(NS(=O)(=O)c3ccc(C(C)C)cc3)ccc2C1 [Example 3, 4-Isopropyl-N—((R)-6-propylamino-5,6,7,8-tetrahydro-naphthalen-2-yl)-benzenesulfonamide] was run?
**A.** 10.3 nM

**Q.** And the Ki [2]?
**A.** 0.34 nM

**Q.** What about the “Ki(D2)*/Ki(D3)*” value [2] of the same compound?
**A.** 30

**Q.** What does the source list for C=CCN[C@@H]1CCc2cc(NS(=O)(=O)c3ccc(C(C)C)cc3)ccc2C1.Cl [Example 6, N—((R)-6-Allylamino-5,6,7,8-tetrahydro-naphthalen-2-yl)-4-isopropyl-benzenesulfonamide, hydrochloride]?
**A.** Ki [1]: 14.5 nM; Ki [2]: 0.28 nM; Ki(D2)*/Ki(D3)* [2]: 52

**Q.** What does the source list for C=CCN[C@H]1CCc2cc(NS(=O)(=O)c3ccc(C(C)C)cc3)ccc2C1.Cl [Example 7, N—((S)-6-Allylamino-5,6,7,8-tetrahydro-naphthalen-2-yl)-4-isopropyl-benzenesulfonamide, hydrochloride]?
**A.** Ki [1]: 152 nM; Ki [2]: 1.97 nM; Ki(D2)*/Ki(D3)* [2]: 77

**Q.** What does the source list for CCCN[C@H]1CCc2cc(NS(=O)(=O)c3ccc(C(C)C)cc3)ccc2C1.Cl [Example 8, 4-Isopropyl-N—((S)-6-propylamino-5,6,7,8-tetrahydro-naphthalen-2-yl)-benzenesulfonamide, hydrochloride]?
**A.** Ki [1]: 50.6 nM; Ki [2]: 0.5 nM; Ki(D2)*/Ki(D3)* [2]: 102

**Q.** With C=CCN[C@H]1CCc2cc(N(C)S(=O)(=O)c3ccc(C(C)C)cc3)ccc2C1 [Example 9, N—((S)-6-Allylamino-5,6,7,8-tetrahydro-naphthalen-2-yl)-4-isopropyl-N-methylbenzenesulfonamide] as the compound, how does the Ki [1] read?
**A.** 416 nM

**Q.** What about the Ki [2] of the same compound?
**A.** 15.3 nM

**Q.** What about the “Ki(D2)*/Ki(D3)*” value [2] of the same compound?
**A.** 27

**Q.** What does the source list for CCCN[C@H]1CCc2cc(N(C)S(=O)(=O)c3ccc(C(C)C)cc3)ccc2C1 [Example 10, 4-Isopropyl-N-methyl-N—((S)-6-propylamino-5,6,7,8-tetrahydro-naphthalen-2-yl)benzenesulfonamide]?
**A.** Ki [1]: 238 nM; Ki [2]: 8.2 nM; Ki(D2)*/Ki(D3)* [2]: 29

**Q.** For CCCN[C@H]1CCc2cc(NS(=O)(=O)c3ccc(OC(F)F)cc3)ccc2C1.Cl [Example 46, 4-Difluoromethoxy-N—((S)-6-propylamino-5,6,7,8-tetrahydro-naphthalen-2-yl)benzenesulfonamide, hydrochloride], which Ki [2] is on record?
**A.** 2.5 nM

**Q.** And the “Ki(D2)*/Ki(D3)*” value [2]?
**A.** 100

**Q.** With CCCN[C@H]1CCc2cc(NS(=O)(=O)c3ccc(CC(F)(F)F)cc3)ccc2C1.Cl [Example 47, N—((S)-6-Propylamino-5,6,7,8-tetrahydro-naphthalen-2-yl)-4-(2,2,2-trifluoro-ethyl)benzenesulfonamide, hydrochloride] as the compound, how does the Ki [2] read?
**A.** 5.1 nM

**Q.** What about the “Ki(D2)*/Ki(D3)*” value [2] of the same compound?
**A.** 70

**Q.** What does the source list for CCCN[C@H]1CCc2cc(NS(=O)(=O)c3ccc(C4CC4(F)F)cc3)ccc2C1.Cl (stereo partly drawn) [Example 48, 4-(2,2-Difluoro-cyclopropyl)-N—((S)-6-propylamino-5,6,7,8-tetrahydro-naphthalen-2-yl)benzenesulfonamide, hydrochloride]?
**A.** Ki [2]: 1.5 nM; Ki(D2)*/Ki(D3)* [2]: 128

**Q.** How did the Ki [2] turn out when CCCN[C@H]1CCc2cc(NS(=O)(=O)c3ccc(N4CCCC4)cc3)ccc2C1.Cl [Example 49, N—((S)-6-Propylamino-5,6,7,8-tetrahydro-naphthalen-2-yl)-4-pyrrolidin-1-ylbenzenesulfonamide, hydrochloride] was run?
**A.** 1.3 nM

**Q.** And the “Ki(D2)*/Ki(D3)*” value [2]?
**A.** 63

**Q.** Which results are given for CCCN[C@H]1CCc2cc(NS(=O)(=O)c3ccc(N(C)C)cc3)ccc2C1.Cl [Example 50, 4-Dimethylamino-N—((S)-6-propylamino-5,6,7,8-tetrahydro-naphthalen-2-yl)benzenesulfonamide, hydrochloride]?
**A.** Ki [2]: 1.8 nM; Ki(D2)*/Ki(D3)* [2]: 95

**Q.** What does the source list for CCCN[C@H]1CCc2cc(NS(=O)(=O)c3ccc(CCCF)cc3)ccc2C1 [Example 51, 4-(3-Fluoro-propyl)-N—((S)-6-propylamino-5,6,7,8-tetrahydro-naphthalen-2-yl)benzenesulfonamide]?
**A.** Ki [2]: 1.7 nM; Ki(D2)*/Ki(D3)* [2]: 56

**Q.** How did the Ki [2] turn out when CCCN[C@H]1CCc2cc(NS(=O)(=O)c3ccc(CCC)s3)ccc2C1.Cl [Example 52, 5-Propyl-thiophene-sulfonic acid ((S)-6-propylamino-5,6,7,8-tetrahydro-naphthalen-2-yl)amide, hydrochloride] was run?
**A.** 0.7 nM

**Q.** And the “Ki(D2)*/Ki(D3)*” value [2]?
**A.** 71

**Q.** With CCCN[C@H]1CCc2cc(NS(=O)(=O)c3ccc([C@H](C)CF)cc3)ccc2C1.Cl [Example 55, 4-((S)-2-Fluoro-1-methyl-ethyl)-N—((S)-6-propylamino-5,6,7,8-tetrahydro-naphthalen-2-yl)benzenesulfonamide, hydrochloride] as the compound, how does the Ki [2] read?
**A.** 1.7 nM

**Q.** And the “Ki(D2)*/Ki(D3)*” value [2]?
**A.** 230

**Q.** Which results are given for CCCN[C@H]1CCc2cc(NS(=O)(=O)c3ccc([C@@H](C)CF)cc3)ccc2C1.Cl [Example 56, 4-((R)-2-Fluoro-1-methyl-ethyl)-N—((S)-6-propylamino-5,6,7,8-tetrahydro-naphthalen-2-yl)benzenesulfonamide, hydrochloride]?
**A.** Ki [2]: 2.4 nM; Ki(D2)*/Ki(D3)* [2]: 161

**Q.** CCCN[C@@H]1CCc2cc(NS(=O)(=O)c3ccc(CCCF)cc3)ccc2C1.Cl [Example 58, 4-(3-Fluoro-propyl)-N—((R)-6-propylamino-5,6,7,8-tetrahydro-naphthalen-2-yl)benzenesulfonamide, hydrochloride] was tested. Which Ki [2] did it give?
**A.** 0.15 nM

**Q.** And the “Ki(D2)*/Ki(D3)*” value [2]?
**A.** 229

**Q.** CCCN[C@H]1CCc2cc(NS(=O)(=O)c3ccc(C(C)=O)cc3)ccc2C1 [Example 60, 4-Acetyl-N—((S)-6-propylamino-5,6,7,8-tetrahydro-naphthalen-2-yl)-benzenesulfonamide] was tested. Which Ki [2] did it give?
**A.** 9.4 nM

**Q.** And the “Ki(D2)*/Ki(D3)*” value [2]?
**A.** 274

**Q.** What does the source list for CCCN[C@H]1CCc2cc(NS(=O)(=O)c3ccc(C(C)(C)F)cc3)ccc2C1.O=C(O)C(F)(F)F [Example 62, 4-(1-Fluoro-1-methyl-ethyl)-N—((S)-6-propylamino-5,6,7,8-tetrahydro-naphthalen-2-yl)benzenesulfonamide, trifluoro acetate]?
**A.** Ki [2]: 6.2 nM; Ki(D2)*/Ki(D3)* [2]: 77

**Q.** What does the source list for CCN[C@H]1CCc2cc(NS(=O)(=O)c3ccc(OC(F)(F)F)cc3)ccc2C1.Cl [Example 63, N—((S)-6-Ethylamino-5,6,7,8-tetrahydro-naphthalen-2-yl)-4-trifluoromethoxybenzenesulfonamide, hydrochloride]?
**A.** Ki [2]: 30.9 nM; Ki(D2)*/Ki(D3)* [2]: 40

**Q.** What does the source list for CCN[C@H]1CCc2cc(NS(=O)(=O)c3ccc(C(C)C)cc3)ccc2C1.Cl [Example 64, N—((S)-6-Ethylamino-5,6,7,8-tetrahydro-naphthalen-2-yl)-4-isopropyl-benzenesulfonamide, hydrochloride]?
**A.** Ki [2]: 3.4 nM; Ki(D2)*/Ki(D3)* [2]: 70

**Q.** Which Ki [2] does the source give for CC(C)c1ccc(S(=O)(=O)Nc2ccc3c(c2)CC[C@H](NCCCF)C3)cc1.Cl [Example 68, N—[(S)-6-(3-Fluoro-propylamino)-5,6,7,8-tetrahydro-naphthalen-2-yl]-4-isopropylbenzenesulfonamide, hydrochloride] here?
**A.** 2 nM

**Q.** What about the “Ki(D2)*/Ki(D3)*” value [2] of the same compound?
**A.** 42

**Q.** CCN[C@H]1CCc2cc(NS(=O)(=O)c3ccc(N4CCCC4)cc3)ccc2C1.Cl [Example 70, N—((S)-6-Ethylamino-5,6,7,8-tetrahydro-naphthalen-2-yl)-4-pyrrolidin-1-ylbenzenesulfonamide, hydrochloride] was tested. Which Ki [2] did it give?
**A.** 3.6 nM

**Q.** What about the “Ki(D2)*/Ki(D3)*” value [2] of the same compound?
**A.** 61

**Q.** With CCCN[C@H]1CCc2cc(NS(=O)(=O)c3ccc(OC(F)F)cc3)ccc2C1 [Example 74, 4-Difluoromethoxy-N—((S)-6-propylamino-5,6,7,8-tetrahydro-naphthalen-2-yl)benzenesulfonamide, hydrochloride] as the compound, how does the Ki [1] read?
**A.** 250 nM

— patent US8969552B2, “Arylsulfonylmethyl or arylsulfonamide substituted aromatic compounds suitable for treating disorders that respond to modulation of the dopamine D3 receptor” (AbbVie Deutschland GmbH & Co. KG, priority 2004, dated 2015)
